Assay results as given in patent publication US20210261513A1, “4-SUBSTITUTED PHENYL-1,3,5-TRIAZINE DERIVATIVES AS MODULATORS OF TRK RECEPTORS” (ALZECURE PHARMA AB, priority 2018, published 2021).

Experiments:
TrkB = target: T1, TrkB (Homo sapiens, UniProt Q16620); assay: cell-based Enzyme Fragment Complementation (EFC) assay, U2OS cells over-expressing TrkB; settings: compound pre-mixed with ligand (NGF), final ligand concentration 10 ng/mL, 3 hours at room temperature, read-out: TrkB potency expressed as EC50
T1 construct: expressed in transfected cells; host or cells: U2OS
T1 sequence (Q16620 32-822): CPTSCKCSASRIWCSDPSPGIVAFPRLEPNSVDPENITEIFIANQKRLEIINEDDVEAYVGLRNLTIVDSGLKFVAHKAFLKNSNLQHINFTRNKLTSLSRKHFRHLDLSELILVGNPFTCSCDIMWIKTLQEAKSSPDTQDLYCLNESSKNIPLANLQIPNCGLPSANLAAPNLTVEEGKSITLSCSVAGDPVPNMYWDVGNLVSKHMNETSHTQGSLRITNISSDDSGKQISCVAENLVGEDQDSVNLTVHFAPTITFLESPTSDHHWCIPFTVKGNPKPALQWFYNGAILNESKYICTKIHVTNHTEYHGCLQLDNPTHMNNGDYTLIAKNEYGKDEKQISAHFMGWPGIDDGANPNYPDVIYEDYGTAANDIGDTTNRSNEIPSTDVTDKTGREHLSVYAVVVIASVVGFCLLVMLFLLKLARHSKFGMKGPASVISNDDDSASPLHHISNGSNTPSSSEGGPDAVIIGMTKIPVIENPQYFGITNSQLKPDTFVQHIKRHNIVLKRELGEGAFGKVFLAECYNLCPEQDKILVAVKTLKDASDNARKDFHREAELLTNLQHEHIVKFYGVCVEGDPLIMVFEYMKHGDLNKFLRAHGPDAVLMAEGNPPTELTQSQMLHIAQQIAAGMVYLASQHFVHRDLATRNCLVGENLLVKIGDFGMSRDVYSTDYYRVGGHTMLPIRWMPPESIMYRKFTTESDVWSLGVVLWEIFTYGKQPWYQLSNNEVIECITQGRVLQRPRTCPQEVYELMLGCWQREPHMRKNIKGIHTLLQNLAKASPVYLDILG
From the text: (§1) A high throughput cell-based screen has been used to identify positive modulators of TrkA and TrkB. The screen involves the use of cell-based assay overexpressing TrkA or TrkB. The purpose of the assay is to identify compounds that modulate neurotrophin signalling (Forsell et al 2012). The assay can be used in inhibitor mode using a high concentration of ligand, in modulator mode using an intermediate concentration and in agonist mode using a low concentration of ligand.
(§2) The assay uses Enzyme Fragment Complementation (EFC) technique, which is a proximity-based assay. Briefly, cells used in this assay over-express two fusion proteins, i.e. the receptor, which can be either of TrkA or TrkB, fused to a small peptide of beta-galactosidase and an adaptor protein, i.e. SHC1 (or any other Trk-adaptor protein) fused to the major part of beta-galactosidase. […] The proximity between the small activating peptide on the receptor and the major part of beta-galactosidase on the adaptor protein leads to an active beta-galactosidase enzyme. The activation of the receptor is quantified by measuring the amount of active beta-galactosidase by its conversion of a non-luminescent substrate into a luminescent product.
(§3) U2OS-cells, over-expressing TrkA or TrkB, are plated in 96- or 384-well plates and incubated overnight. On the following day, test compound was pre-mixed with ligand (NGF) and the ligand-compound mixture is then added to the cells to yield a final ligand concentration of 10 ng/mL. After 3 hours of incubation at room temperature, the incubation is stopped by the addition of a beta-galactosidase substrate mixture containing detergents. The substrate mixture is incubated for 60 minutes at ambient temperature. The luminescence is thereafter read by the use of a plate reader.

TrkA = target: T2, TrkA (Homo sapiens, UniProt P04629); assay: cell-based Enzyme Fragment Complementation (EFC) assay, U2OS cells over-expressing TrkA; settings: compound pre-mixed with ligand (NGF), final ligand concentration 10 ng/mL, 3 hours at room temperature, read-out: TrkA potency expressed as EC50
T2 construct: expressed in transfected cells; host or cells: U2OS
T2 sequence (P04629 33-796): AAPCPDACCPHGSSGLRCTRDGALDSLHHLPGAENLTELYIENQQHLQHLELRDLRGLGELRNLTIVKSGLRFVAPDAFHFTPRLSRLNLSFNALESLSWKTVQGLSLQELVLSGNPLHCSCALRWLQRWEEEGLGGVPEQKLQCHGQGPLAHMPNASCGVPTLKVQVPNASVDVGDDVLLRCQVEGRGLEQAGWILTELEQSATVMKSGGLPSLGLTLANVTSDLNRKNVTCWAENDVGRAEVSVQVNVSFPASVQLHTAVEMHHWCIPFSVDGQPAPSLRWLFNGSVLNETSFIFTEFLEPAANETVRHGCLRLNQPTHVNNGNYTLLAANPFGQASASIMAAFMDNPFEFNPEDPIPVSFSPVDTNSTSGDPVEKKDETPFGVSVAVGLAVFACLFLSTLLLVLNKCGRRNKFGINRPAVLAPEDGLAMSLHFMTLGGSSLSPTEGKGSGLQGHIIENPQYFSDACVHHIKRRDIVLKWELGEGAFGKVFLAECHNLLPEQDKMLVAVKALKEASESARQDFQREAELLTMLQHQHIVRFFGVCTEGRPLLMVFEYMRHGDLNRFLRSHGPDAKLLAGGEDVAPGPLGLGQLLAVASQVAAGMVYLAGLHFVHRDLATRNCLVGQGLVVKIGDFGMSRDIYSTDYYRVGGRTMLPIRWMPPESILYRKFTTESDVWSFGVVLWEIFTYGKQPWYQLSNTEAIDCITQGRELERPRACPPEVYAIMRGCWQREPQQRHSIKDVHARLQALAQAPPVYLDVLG
From the text: as §1, §2, §3

[1] = system: ephrin type-B receptor 2 (EphB2); settings: Suzuki et al., FEBS Open Bio 2016; cited from earlier work

## Cc1cc(-n2c(=O)[nH]c(=O)n(-c3ccccc3)c2=O)ccc1-n1cccc1 [Example 6, 1-[3-methyl-4-(1H-pyrrol-1-yl)phenyl]-3-phenyl-1,3,5-triazinane-2,4,6-trione]
TrkB
  EC50: 250 nM
TrkA
  EC50: 240 nM

## Cc1cc(-n2c(=O)[nH]c(=O)n(-c3ccccc3)c2=O)ccc1-c1ccccc1 [Example 1, 1-{2-methyl-[1,1′-biphenyl]-4-yl}-3-phenyl-1,3,5-triazinane-2,4,6-trione]
TrkB
  EC50: 90 nM
TrkA
  EC50: 180 nM

## Cc1cc(-n2c(=O)[nH]c(=O)n(-c3ccccc3)c2=O)ccc1C(C)C [Example 3, 1-[3-methyl-4-(propan-2-yl)phenyl]-3-phenyl-1,3,5-triazinane-2,4,6-trione]
TrkB
  EC50: 7900 nM
TrkA
  EC50: 7050 nM

## Cc1cc(-n2c(=O)[nH]c(=O)n(-c3ccccc3)c2=O)ccc1-n1cccn1 [Example 8, 1-[3-methyl-4-(1H-pyrazol-1-yl)phenyl]-3-phenyl-1,3,5-triazinane-2,4,6-trione]
TrkB
  EC50: 6220 nM
TrkA
  EC50: 5560 nM

## Cc1cc(-n2c(=O)[nH]c(=O)n(-c3ccccc3)c2=O)ccc1N1CCCCC1 [Example 2, 1-[3-methyl-4-(piperidin-1-yl)phenyl]-3-phenyl-1,3,5-triazinane-2,4,6-trione]
TrkB
  EC50: 1270 nM
TrkA
  EC50: 1050 nM

## CCc1ccc(-c2ccc(-n3c(=O)[nH]c(=O)n(C)c3=O)cc2C)cc1 [Example 5, 1-{4′-ethyl-2-methyl-[1,1′-biphenyl]-4-yl}-3-methyl-1,3,5-triazinane-2,4,6-trione]
TrkB
  EC50: 3000 nM
TrkA
  EC50: 7200 nM

## Cc1cc(-n2c(=O)[nH]c(=O)n(C)c2=O)ccc1-c1ccccc1 [Example 7, 1-methyl-3-{2-methyl-[1,1′-biphenyl]-4-yl}-1,3,5-triazinane-2,4,6-trione]
TrkB
  EC50: 20600 nM
TrkA
  EC50: 6710 nM

## Cc1cccc(-n2c(=O)[nH]c(=O)n(-c3ccc(-n4cccc4)c(C)c3)c2=O)c1 [Example 11, 1-[3-methyl-4-(1H-pyrrol-1-yl)phenyl]-3-(3-methylphenyl)-1,3,5-triazinane-2,4,6-trione]
TrkB
  EC50: 70 nM
TrkA
  EC50: 100 nM

## Cc1ccc(-c2ccc(-n3c(=O)[nH]c(=O)n(-c4ccccc4)c3=O)cc2C)o1 [Example 4, 1-[3-methyl-4-(5-methylfuran-2-yl)phenyl]-3-phenyl-1,3,5-triazinane-2,4,6-trione]
TrkB
  EC50: 2080 nM
TrkA
  EC50: 6770 nM

## Cc1cc(-n2c(=O)[nH]c(=O)n(C)c2=O)ccc1Oc1ccc(SC(F)(F)F)cc1 [toltrazuril, 1-methyl-3-(3-methyl-4-{4-[(trifluoromethyl)sulfanyl]phenoxy}phenyl)-1,3,5-triazinane-2,4,6-trione]
[1]
  inhibits the binding of p-amyloid oligomers to ephrin type-B receptor 2 (EphB2): 30%
